What was measured:
CD8+ T cells = assay: Exogenous autologous healthy donor restimulation assay, TNFα and IFNγ production by CD8+ T cells; type: cell-based, human; design: Frequency (TNFα+ IFNγ+ CD8 T cells): unit not given here; conditions: for Fold change (CD8+) vs. DMSO: maximum CD8+ T-cell response (TNFα and IFNγ); for Fold change (CD8+) vs. DMSO / Frequency (TNFα+ IFNγ+ CD8 T cells): donor independent, peptide pool 10 μg/mL, healthy donors; for Frequency (TNFα+ IFNγ+ CD8 T cells): maximum CD8+ T-cell response; for Immunogenic (yes/no): positive if CD8+ and/or CD4+ double positive TNFα/IFNγ frequency >=3-fold over DMSO and at least 0.01%
Experimental: (§1) Immunogenicity responses were measured by estimating TNFα IFNγ double positive cells in the CD4+ and/or CD8+ T-cell populations. A response is considered positive if TNFα IFNγ double positive fraction was greater than or equal to three-fold over unstimulated cells (DMSO negative control) with a minimum frequency >=0.01%. […]
(§2) Overlapping 15-mer peptides were designed to span each indicated neoantigen. Their ability to activate T cells was assessed using known methods, such as the assay defnied as exogenous autologous normal donor restimulation assay. The peptides were used as pools using TNFα and IFNγ production by CD8^+ and CD4^+ T cells as a readout. Maximum frequency of CD8^+TNFα^+IFNγ^+ and CD4^+TNFα^+IFNγ^+ T cells and maximum fold change over background for each pool of peptides were analyzed, which were calculated as the highest frequency of CD8^+ TNFα^+IFNγ^+ and CD4^+ TNFα^+IFNγ^+ T cells and resulting fold change across the normal donors evaluated for the peptide.
(§3) CD1c+Dendritic Cells (CD1c+DC) isolated from human healthy PBMCs were thawed using media (IMDM (Gibco) supplemented with glutamine, HEPES, 5% human serum (Sigma), and 1× Pen-Strep). DC cells were resuspended in media supplemented with IL-4 (Peprotech, 20 ng/mL) and GM-CSF (Gibco, 20 ng/mL), plated in 6 well microplates, and rested overnight at 37° C. and 5% CO2 incubator. The following day, DC cells were counted and plated in a 96 well round bottom microplate at a concentration of 30,000 viable cells per well. Lyophilized neoantigen peptide pools (15-mer peptides with 8-mer overlapping peptide sequences) were solubilized in 100% DMSO with a stock concentration of 20 mg/mL Neoantigen peptides pools were added to DCs for a final concentration of 10 μg/mL and rested for 2 hours at 37° C. and 5% CO2 incubator. CEF Peptide Pool “Plus” (Cellular Technologies, Ltd.) was utilized as a positive control (each viral peptide at a final concentration of 4 ug/ml) and DMSO at the same final concentration (0.05%) as the experimental peptides was utilized as a negative control. After 2 hours, DC cells were irradiated with 50 gray of ionizing radiation. Autologous CD3+ Pan-T cells isolated from human normal PBMCs were thawed using media. Following irradiation, autologous Pan-T cells were added to the irradiated DCs at 300,000 viable cells per well. Human IL-15 (Peprotech) was added to all wells at final concentration of 10 ng/ml. Plates were incubated at 37° C. and 5% CO2 incubator for a total of 12 days. Media was refreshed every 2-3 days with IL-15 (R&D System, 10 ng/mL final concentration) and IL-2 (R&D systems, 10 IU/mL final concentration).
(§4) On Day 11, cells were re-stimulated with identical experimental peptide pools or controls, at same concentration as peptide stimulation on Day 1. Protein Inhibitor Cocktail (eBioscience) was added to every well and plate was incubated overnight for 14-16 hours at 37° C. and 5% CO2 incubator. On Day 12, cells were stained for surface and intracellular flow cytometry analysis. The cells were washed with PBS and stained with Live/Dead Fixable Aqua Dead Cell stain (Thermo-Fisher). Following the live/dead stain, cells were blocked using Biotin-Free Fc Receptor Blocker (Accurate Chemical & Scientific Corp). Extracellular cellular flow panel (1 μL/antibody per well in 50 μL) consisted of CD3 PerCP-Cy5.5 (Biolegend), CD4 BV421 (Biolegend), and CD8 APC-Cy7 (Biolegend). After extracellular staining, cells were fixed and permeabilized using Foxp3/Transcription Factor Staining Buffer Set (eBioscience) and stained for intracellular proteins (1:50 dilution) using TNFα FITC (R&D Systems) and IFNγ BV785 (Biolegend). Cells were washed and resuspended in stain buffer, analyzed, and recorded in a BD Celesta flow cytometer.
(§5) Flow cytometry analysis was conducted on FlowJo v10.6 software. Cells were gated on live, singlet, CD3+, CD4+ and CD8+ T cells. The CD8+ and CD4+ T cells were analyzed for TNFα and IFNγ expression. […]

CD4+ T cells = assay: Exogenous autologous healthy donor restimulation assay, TNFα and IFNγ production by CD4+ T cells; type: cell-based, human; design: Frequency (TNFα+ IFNγ+ CD4 T cells): unit not given here; conditions: donor independent, peptide pool 10 μg/mL, healthy donors; for Fold change (CD4+) vs. DMSO: maximum CD4+ T-cell response (TNFα and IFNγ); for Frequency (TNFα+ IFNγ+ CD4 T cells): maximum CD4+ T-cell response
Experimental: as §1, §2, §3, §4, §5

Sequence | Fold change (CD8+) vs. DMSO (CD8+ T cells) | Frequency (TNFα+ IFNγ+ CD8 T cells) (CD8+ T cells) | Immunogenic (yes/no) (CD8+ T cells) | Fold change (CD4+) vs. DMSO (CD4+ T cells) | Frequency (TNFα+ IFNγ+ CD4 T cells) (CD4+ T cells)
PKVFPKNQVISLIPKAQEDPEHT [AS127, alternative splicing, ST3GAL6] | 1.44 | 0.08 | Yes | 7.179 | 0.14
PPGGHSPQDLSIREIFCLGHKEVC [AS136, alternative splicing, ZNF592] | 5.91 | 0.072 | Yes | 10.86 | 0.07
PPLITNVTEKPWKHTRIEMPLARLTRP [FUS51, gene fusion POU2AF1-> COLCA1] | 200 | 0.06 | Yes | 11.93 | 0.061
PPTAAASQTCLELER [FUS21, gene fusion FOSB-> KLF6] | 4.24 | 0.04 | Yes | 8.08 | 0.023
PPTAAASQTMQIFVKT [FUS31, gene fusion FOSB-> UBC] | 14.72 | 0.022 | Yes | 0.7 | 0.004
PQEEVPFRSITTELFPSMC [FUS27, gene fusion TBCEL-> TECTA] | 3.38 | 0.009 | Yes | 3.3 | 0.038
PRDNHTDHENPRGSDGQGRWKCPSQVTYIRRTLM [FUS16, gene fusion UBE2J1-> GABRR2] | 8.86 | 0.12 | Yes | 4.388 | 0.027
PVILFKGKVRPIP [AS67, alternative splicing, MTMR14] | 28.23 | 0.52 | Yes | 8.57 | 0.071
QIIYDENRTMQIFVKT [FUS28, gene fusion NCOR2-> UBC] | 247.49 | 0.37 | Yes | 1.13 | 0.009
QILEQPKQVRLKGWDFKC [AS68, alternative splicing, NFKB1] | 4 | 0.022 | Yes | 21.77 | 0.033
QILQQALKIAFLKVVVPLKLHPYSFCH [AS132, alternative splicing, USP25] | 4.73 | 0.026 | Yes | 181.82 | 0.17
QILQQALKKLPFSLCITECETIAYHLARDSNGNLEL [AS131, alternative splicing, USP25] | 299.44 | 0.53 | Yes | 10.53 | 0.008
QIRVPSYSDEG [AS114, alternative splicing, CNTN5] | 7.6 | 0.14 | Yes | 2.05 | 0.02
